Data from patent US20140079634A1, “LABELED PE2I FORMULATION AND METHOD” (priority 2012, published 2014).

Experiments:
Assay type in all cases: in vivo
[1] = target: dopamine transporter (Rattus norvegicus, UniProt P23977); assay: SPECT scan, transporter occupancy and binding parameters (Parkinson's Diagnosis)
Experimental: A SPECT scan is performed. Strong evidence of different nonspecific binding in the striatal region, compared with the reference region is found, leading to bias in the estimate of dopaminergic denervation (range, 36%-94% severity) was found. […] The 6-hydroxydopamine lesion affected B(max) (control, 402±94 pmol/mL; lesioned, 117±120 pmol/mL; P=0.003) but not K app d (control, 331±63 pmol/mL; lesioned, 362±119 pmol/mL; P=0.63).

[2] = target: T1, dopamine transporter (Homo sapiens, UniProt Q01959); assay: SPECT imaging of the dopamine transporter, Lewy Body Dementia subjects; conditions: six Lewy Body Dementia individuals, greater than 1 mCi intravenous
T1 construct: from tissue; host or cells: striatum in vivo (SPECT imaging of subjects)
T1 sequence (Q01959 whole entry): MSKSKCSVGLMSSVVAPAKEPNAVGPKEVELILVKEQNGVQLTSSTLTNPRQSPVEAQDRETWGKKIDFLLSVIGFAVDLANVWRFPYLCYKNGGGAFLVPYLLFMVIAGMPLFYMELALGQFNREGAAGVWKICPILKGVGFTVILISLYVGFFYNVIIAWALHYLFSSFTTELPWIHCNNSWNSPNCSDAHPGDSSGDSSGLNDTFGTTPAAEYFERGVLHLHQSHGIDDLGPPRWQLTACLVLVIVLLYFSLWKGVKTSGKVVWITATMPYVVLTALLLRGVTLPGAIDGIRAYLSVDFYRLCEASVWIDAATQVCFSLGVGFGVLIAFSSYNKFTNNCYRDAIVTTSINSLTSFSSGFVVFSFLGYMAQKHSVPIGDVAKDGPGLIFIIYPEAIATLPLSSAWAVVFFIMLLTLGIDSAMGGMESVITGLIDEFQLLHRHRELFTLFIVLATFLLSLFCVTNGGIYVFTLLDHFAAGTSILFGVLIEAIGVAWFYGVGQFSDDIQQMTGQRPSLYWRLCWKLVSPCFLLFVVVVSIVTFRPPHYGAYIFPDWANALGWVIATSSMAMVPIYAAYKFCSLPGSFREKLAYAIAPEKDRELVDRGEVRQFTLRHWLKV
Experimental: (§1) SPECT imaging of the dopamine transporter with ^123I-PE2I is conducted on six subjects previously diagnosed with Lewy Body Dementia, and on control individuals without a diagnosis of Lewy Body Dementia. For each individual tested, greater than 1 mCi of ^123I-PE2I is administered by intravenous injection at the onset of imaging. Images of the striatum are collected and analyzed by a radiologist to determine striatal binding potentials. In general, the methodology used for the SPECT imaging is the same as the methods described in Fischman et al., 1998, Synapse 29:125 41, which is incorporated herein by reference.

[3] = target: T1, dopamine transporter; assay: SPECT imaging of the dopamine transporter, ADHD subjects; conditions: six ADHD individuals, greater than 1 mCi intravenous
Experimental: as §1, with “1231-PE2I” for “^123I-PE2I”, “ADHD,” for “Lewy Body Dementia,”, “ADHD.” for “Lewy Body Dementia.”, “29:125-41,” for “29:125 41,”

Chain of dopamine transporter (Rattus norvegicus, UniProt P23977) (P23977 whole entry): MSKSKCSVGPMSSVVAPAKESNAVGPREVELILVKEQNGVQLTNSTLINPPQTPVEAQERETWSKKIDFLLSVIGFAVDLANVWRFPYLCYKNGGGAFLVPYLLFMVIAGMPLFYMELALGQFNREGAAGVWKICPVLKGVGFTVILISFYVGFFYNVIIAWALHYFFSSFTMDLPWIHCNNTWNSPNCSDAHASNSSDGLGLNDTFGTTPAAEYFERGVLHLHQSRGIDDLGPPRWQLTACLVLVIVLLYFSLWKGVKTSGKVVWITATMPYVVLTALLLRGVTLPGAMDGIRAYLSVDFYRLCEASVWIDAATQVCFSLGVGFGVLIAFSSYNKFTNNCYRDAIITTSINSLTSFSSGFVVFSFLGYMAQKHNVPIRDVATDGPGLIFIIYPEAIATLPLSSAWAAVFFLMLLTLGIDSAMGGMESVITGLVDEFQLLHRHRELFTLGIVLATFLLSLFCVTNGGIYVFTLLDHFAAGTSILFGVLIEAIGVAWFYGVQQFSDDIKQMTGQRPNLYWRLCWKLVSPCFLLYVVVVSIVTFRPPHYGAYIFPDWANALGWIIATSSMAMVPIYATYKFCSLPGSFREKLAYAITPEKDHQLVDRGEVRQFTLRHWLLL

COC(=O)[C@@H]1C2CC[C@H](C[C@@H]1c1ccc(C)cc1)N2C/C=C/I [[^123I]-PE2I, [^123I] N-(3-iodoprop-2E-enyl)-2β-carbomethoxy-3β-(4-methylphenyl)-nortropane]
B(max) ([1]; 6-hydroxydopamine lesioned): 117 ± 120 pmol/mL
B(max) ([1]; control): 402 ± 94 pmol/mL
striatal binding potential versus expected levels for aged matched normal individuals [2]: reduced binding potential
striatal binding potential versus expected levels for aged matched normal individuals [3]: reduced binding potential
